From US8592403B2, “Diazepine and diazocane compounds as MC4 agonists” (Pfizer Limited, priority 2008, dated 2013)
pEC50, pKi: −log10 of the molar value.

Key:
MC4 receptor (MC4R) = molecular target: T1, MC4 receptor (MC4R) (Homo sapiens, UniProt P32245); experiment: Nle4, D-Phe7-α-MSH inhibition at the MC4 receptor (competition binding, SPA, CHO-CRE MC4R membranes)
T1 construct: expressed in transfected cells; host or cells: CHO-CRE MC4R cells (membranes)
Excerpt: Nle4, D-Phe7-α-MSH Inhibition at the MC4 Receptor
(§1) Nle4, D-Phe7-α-MSH is a stable analogue of melanocyte-stimulating hormone (MSH), which is an agonist at the MC4 receptor (MC4R). Compounds can be evaluated for their ability to inhibit Nle4, D-Phe7-α-MSH binding to membranes from cells expressing the MC4R using a competition binding assay versus [^125I] Nle4, D-Phe7-α-MSH.
Cells expressing the MC4R were subject to homogenisation and the membrane fragment isolated by differential centrifugation. CHO-CRE MC4R cell membranes were coupled to PVT-PEI-WGA SPA Beads type A for 2 hours, spun at 1000 RPM for 5 min and suspended to a concentration of 300 ug bead/ml (0.15 ug membrane, 15 ug bead per well). Bead/membrane mix was incubated with 0.06 nM [^125I] Nle4, D-Phe7-α-MSH and 11 half-log concentrations of competitor ligand, in duplicate, in a total volume of 50 μl buffer per well (25 mM HEPES, 1 mM MgCl2, 2.5 mM CaCl2, 1% Pluronic F68, 1 complete EDTA protease inhibitor tablet/50 ml pH7). Non-specific binding was determined by the inclusion of 100 nM SHU9119. The reaction was initiated by the addition of bead/membranes and plates were incubated at room temperature for 12 hours (the first hour on a plate shaker), after which the amount of radioactivity present was determined using a Wallac plate counter. Ki values were determined by data analysis using appropriate software.

[1] = In vitro metabolism rate determination, human liver microsome (HLM) assay; format: in vitro ADME; details: human, liver microsomes, read-out: HLM: Clint, app
Excerpt: In Vitro Metabolism Rate Determination (Human Liver Microsome (HLM); Rat Liver Microsome (RLM) Assay)
Many drugs are metabolised by the cytochrome P450 mono-oxygenase system. This enzyme is found in high concentrations in the liver and is bound to the endoplasmic reticulum of the hepatocyte. The enzyme system can be obtained in semi-purified state by the preparation of the hepatic microsomal fractions. Determining a compound's in vitro half-life in such a system provides a useful indicator of metabolic stability.
Methodology for In Vitro Rate Determination Using Hepatic & Supermix Microsomes
The method outlined below is for a total incubation volume of 1.5 ml.
1. The following mixture is prepared in a test tube:
2. Defrost microsomes at room temperature and add sufficient microsomes to give a final concentration of 0.5 nmol cytochrome P450/ml of incubation e.g. for a 1.5 ml incubation, the volume of microsomes to be added is:
3. Add sufficient MilliQ water to give a total incubation volume of 1.425 ml.
6. Add substrate to the incubation. The substrate should be at an initial concentration of 1 μM. The volume of substrate required in the remaining 1.162.5 ml incubation is calculated as follows: […]
8. Pre-incubate the tube containing the incubation mix, also positive control and no cofactor tubes in the thermostatically controlled shaking water bath set at 37° C. for approx 5 min.
9. Add NADP to initiate reaction (75 μl to each 1.162.5 ml incubation mix, 12.5 μl to positive control tube and 5 μl to no substrate tube) and take first time point immediately. The PNA positive control, no cofactor control and no substrate tubes are incubated for the total incubation time.
10. Remove 100 μl aliquots up to 9 different sampling points from 0 to 60 min (usually 0, 3, 5, 10, 15, 20, 30, 45 & 60 min) and terminate reaction. Longer incubation times can be used, but, after 120 min the microsomes deteriorate. The reaction may be terminated by addition of organic solvent, acid or base. At the end of the incubation process the no cofactor and no substrate controls in a similar manner i.e. terminate with the same reagent.
11. Analyse samples (including no cofactor and no substrate control) by a specific assay for the substrate to determine the disappearance kinetics.
Data obtained using the procedure described above can be quantified in terms of the substrates in vitro intrinsic clearance (Clint). Providing that the substrate concentration is below Km, the metabolism should be 1st order giving a log-linear plot of substrate disappearance with time.
The gradient of this line is the first order rate constant (k) for the substrate disappearance and is determined by regression analysis. This rate constant can be converted to the half-life according to the following equation.
Alternatively the rate constant can be converted to an intrinsic clearance (Clint) according to the following equation:— Clint(μl/min/mg)=(k/protein concentration in incubation (mg/ml))*1000

CYP3A4 = molecular target: T2, CYP3A4 (Homo sapiens, UniProt P08684); experiment: High density DDI 3 μM cocktail screen in human liver microsomes, midazolam probe; format: in vitro ADME; details: human, liver microsomes, probe midazolam, read-out: % inhibition 3A4 @ 3 μM
T2 construct: utilizes human liver microsomes together with isoform-specific clinical drug probes; from tissue; host or cells: human liver microsomes
Protocol: High Density Drug-Drug Interactions (DDI) 3 μM Cocktail Screen
A drug interaction is a situation in which a substance affects the activity of another drug, i.e. the effects are increased or decreased, or together they produce a new effect that neither produces on its own. Drug interactions may be the result of various processes but a relatively common one is where one drug affects the pharmacokinetics of another by inhibiting the cytochrome P450 that metabolises it. Because of the importance of these phenomena, assessment of the DDI potential for new chemical entities (NCEs) is considered important early on in the drug discovery process.
The DDI cocktail screen in human liver microsomes (HLM) is run in a fully automated fashion and the aim of the screen is to provide a single-point assessment of the DDI potential of new chemical entity (NCE; tested at […]) against the 4 primary cytochrome P450 enzymes, 1A2, 2D6, 2C9 and 3A4.
The substrate cocktail approach for P450 DDI utilizes human liver microsomes together with isoform-specific clinical drug probes and permits the simultaneous measurement of the inhibition of P450 1A2, 2C9, 2D6 & 3A4 activities in a single incubation. This is run in high throughput with simultaneous detection of metabolites by LC-MS/MS. This method has been thoroughly tested and evaluated using standard compounds.
Appearance of the metabolite of each substrate is measured over time in the presence and absence of the NCE (test compound/inhibitor) at a concentration of 3 μM. The compounds are assessed for their inhibitory potential as a percentage value and interpreted using the following scheme.

MC3 receptor (MC3R) = molecular target: T3, MC3 receptor (MC3R) (Homo sapiens, UniProt P41968); experiment: Nle4, D-Phe7-α-MSH inhibition at the MC3 receptor (competition binding, SPA, CHO-CRE MC3R membranes)
T3 construct: expressed in transfected cells; host or cells: CHO-CRE MC3R cells (membranes)
Excerpt: Nle4, D-Phe7-α-MSH Inhibition at the MC3 Receptor
as §1, with “MC3” for “MC4”, “(MC3R).” for “(MC4R).”, “MC3R” for “MC4R”
Cells expressing the MC3R were subject to homogenisation and the membrane fragment isolated by differential centrifugation. CHO-CRE MC3R cell membranes were coupled to PVT-PEI-WGA SPA Beads type A for 2 hours, spun at 1000 RPM for 5 mins and suspended to a final assay concentration of 800 ug bead/ml (1.2 ug membrane, 40 ug bead per well). Bead/membrane mix was incubated with 0.06 nM [^125I] Nle4, D-Phe7-α-MSH and 11 half-log concentrations of competitor ligand, in duplicate, in a total volume of 50 μl buffer per well (25 mM HEPES, 1 mM MgCl2, 2.5 mM CaCl2, 1% Pluronic F68, 1 complete EDTA protease inhibitor tablet/50 ml pH7). Non-specific binding was determined by the inclusion of 100 nM SHU9119. The reaction was initiated by the addition of bead/membranes and plates were incubated at room temperature for 12 hours (the first hour on a plate shaker), after which the amount of radioactivity present was determined using a Wallac plate counter. Ki values were determined by data analysis using appropriate software.

MC4 receptor = MC4 receptor (Homo sapiens, UniProt P32245); experiment: MC4 EC50 functional potency (protocol E of US2005/0176772 / WO 2005/077935); format: cell-based
Protocol: The compounds of formula (I) of the present invention have utility as MCR4 agonists in the treatment of various disease states.
MC5 and MC4 EC50 activity was determined as described by assay protocols D and E, respectively, in US2005/0176772 (pages 28-30).

T2 sequence (P08684 whole entry, canonical isoform): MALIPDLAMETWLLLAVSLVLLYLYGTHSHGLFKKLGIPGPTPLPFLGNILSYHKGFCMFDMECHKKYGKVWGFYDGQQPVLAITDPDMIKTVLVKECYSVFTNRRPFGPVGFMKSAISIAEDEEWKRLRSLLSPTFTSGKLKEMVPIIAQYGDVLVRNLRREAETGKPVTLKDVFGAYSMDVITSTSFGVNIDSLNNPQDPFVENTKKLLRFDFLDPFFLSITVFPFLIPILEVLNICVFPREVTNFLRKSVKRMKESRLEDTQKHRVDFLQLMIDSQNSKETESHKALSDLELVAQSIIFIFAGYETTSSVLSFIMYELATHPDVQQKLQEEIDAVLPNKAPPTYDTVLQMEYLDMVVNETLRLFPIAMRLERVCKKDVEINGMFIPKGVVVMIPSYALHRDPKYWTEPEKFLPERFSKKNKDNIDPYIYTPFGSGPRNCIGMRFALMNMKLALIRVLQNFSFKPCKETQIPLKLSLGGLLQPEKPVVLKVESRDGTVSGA
T3 sequence (P41968 whole entry): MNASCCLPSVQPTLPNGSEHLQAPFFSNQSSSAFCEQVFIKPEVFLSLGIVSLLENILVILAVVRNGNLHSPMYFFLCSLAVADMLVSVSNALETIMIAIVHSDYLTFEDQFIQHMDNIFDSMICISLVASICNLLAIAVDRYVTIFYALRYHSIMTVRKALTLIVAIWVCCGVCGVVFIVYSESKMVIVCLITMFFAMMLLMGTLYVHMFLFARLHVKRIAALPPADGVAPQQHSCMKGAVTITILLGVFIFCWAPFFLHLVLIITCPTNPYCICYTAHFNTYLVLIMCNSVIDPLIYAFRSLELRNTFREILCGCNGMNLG
MC4 receptor, sequence (P32245 whole entry): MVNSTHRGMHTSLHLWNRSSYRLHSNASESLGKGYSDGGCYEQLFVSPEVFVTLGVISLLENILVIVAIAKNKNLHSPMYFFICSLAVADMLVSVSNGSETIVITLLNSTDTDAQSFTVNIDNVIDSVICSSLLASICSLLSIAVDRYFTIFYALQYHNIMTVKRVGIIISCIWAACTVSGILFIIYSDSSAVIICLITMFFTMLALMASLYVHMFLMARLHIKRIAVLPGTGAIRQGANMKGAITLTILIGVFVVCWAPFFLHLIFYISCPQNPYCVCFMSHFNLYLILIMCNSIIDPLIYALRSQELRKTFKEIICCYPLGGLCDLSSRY
T1 sequence (P32245 whole entry): as above

| Compound | pKi (MC4 receptor (MC4R)) | microsomal CLint at 1 μM [1] [µL/min/mg] | inhibition at 3 µM (CYP3A4) [%] | pKi (MC3 receptor (MC3R)) | pEC50 (MC4 receptor) |
| --- | --- | --- | --- | --- | --- |
| CC(=O)N1CCN(C(=O)[C@@H]2CN(c3cccnn3)C[C@H]2c2ccc(F)cc2F)CCC1c1ccccc1 (mixture of isomers) [Example 3] | 6.28 | 60 | 30 | 5.50 | 7.37 |
| COC(=O)N1CCN(C(=O)[C@@H]2CN(C3CCOCC3)C[C@H]2c2ccc(F)cc2F)CCCC1c1ccccc1 (mixture of isomers) [Example 74] | 5.86 | 74 | 56 | 4.71 | 7.06 |
| Cn1nc(N2C[C@@H](C(=O)N3CCCC(c4ccc(Cl)cc4)N(S(C)(=O)=O)CC3)[C@H](c3ccc(F)cc3F)C2)ccc1=O (mixture of isomers) [Example 81] | 6.91 | 18 | 32 | 5.76 | 7.70 |
| CS(=O)(=O)N1CCN(C(=O)[C@@H]2CN(c3ccc(C#N)nn3)C[C@H]2c2ccc(C#N)cc2)CCCC1c1ccc(Cl)cc1 (mixture of isomers) [Example 87] | 6.03 | – | 50 | 5.67 | 6.77 |
| CC1(C(=O)N2CCN(C(=O)[C@@H]3CN(C(C)(C)C)C[C@H]3c3ccc(F)cc3F)CCC[C@H]2c2ccc(Cl)cc2)CC1 [Example 60, 1-{[(3S,4R)-1-tert-butyl-4-(2,4-difluorophenyl)pyrrolidin-3-yl]carbonyl}-5S-(4-chlorophenyl)-4-(1-methylcyclopropylcarbonyl)-1,4-diazocane] | 7.04 | 31.1 | 44.9 | – | 8.32 |
| COc1ccc([C@@H]2CN(C(C)(C)C)C[C@H]2C(=O)N2CCC[C@@H](c3ccc(Cl)cc3)N(C(=O)C3CC(F)(F)C3)CC2)c(F)c1 [Example 62] | 5.44 | – | 0 | – | 7.74 |

Results, then the compound that gave them:

| pKi (MC4 receptor (MC4R)) | microsomal CLint at 1 μM [1] [µL/min/mg] | inhibition at 3 µM (CYP3A4) [%] | pKi (MC3 receptor (MC3R)) | pEC50 (MC4 receptor) | Compound |
| --- | --- | --- | --- | --- | --- |
| 5.68 | 31 | 63 | 5.53 | 6.80 | COc1ccc(C2CCCN(C(=O)[C@@H]3CN(c4ccc(C#N)nn4)C[C@H]3c3ccc(F)cc3F)CCN2C(C)=O)cc1 (mixture of isomers) [Example 1, 6-[(3S,4R)-3-{[4-acetyl-5-(4-methoxyphenyl)-1,4-diazocan-1-yl]carbonyl}-4-(2,4-difluorophenyl)pyrrolidin-1-yl]pyridazine-3-carbonitrile] |
| 6.57 | 39 | 60 | 6.43 | 7.72 | CC(=O)N1CCN(C(=O)[C@@H]2CN(c3ccc(C#N)nn3)C[C@H]2c2ccc(F)cc2F)CCCC1c1ccccc1F (mixture of isomers) [Example 2] |
| 6.26 | 237 | 36.5 | 6.09 | 6.84 | COc1cccc(C2CCCN(C(=O)[C@@H]3CN(c4ccc(C#N)nn4)C[C@H]3c3ccc(F)cc3F)CCN2C(C)=O)c1 (mixture of isomers) [Example 4] |
| 6.23 | 55 | 61.5 | 5.58 | 7.07 | COC(=O)N1CCN(C(=O)[C@@H]2CN(c3ccc(C#N)nn3)C[C@H]2c2ccc(F)cc2F)CCCC1c1ccc(OC)cc1 (mixture of isomers) [Example 48] |
| 6.68 | 86 | 42.5 | 5.65 | 7.68 | COC(=O)N1CCN(C(=O)[C@@H]2CN(c3cccnn3)C[C@H]2c2ccc(F)cc2F)CCC1c1ccccc1 (mixture of isomers) [Example 49] |
| 6.42 | 266 | 76.5 | 5.79 | 7.13 | COC(=O)N1CCN(C(=O)[C@@H]2CN(c3ccc(C#N)nn3)C[C@H]2c2ccc(F)cc2F)CCCC1c1cccc(OC)c1 (mixture of isomers) [Example 50] |
| 7.07 | 8 | 73.5 | 6.34 | 7.97 | COC(=O)N1CCN(C(=O)[C@@H]2CN(c3ccc(C#N)nn3)C[C@H]2c2ccc(F)cc2F)CCCC1c1ccc(Cl)cc1 (mixture of isomers) [Example 75] |
| 7.30 | 19 | 70.5 | 6.20 | 8.27 | COC(=O)N1CCN(C(=O)[C@@H]2CN(c3ccc(=O)n(C)n3)C[C@H]2c2ccc(F)cc2F)CCCC1c1ccc(Cl)cc1 (mixture of isomers) [Example 80] |
